Test results published in patent US4889935A, “Aminoguanidine derivatives” (American Home Products Corporation, priority 1989, dated 1989).

Key:
[1] = system: carrageenan paw edema (acute inflammatory response) in Sprague-Dawley rats; test: rat carrageenan paw edema assay; format: in vivo, rat (Sprague-Dawley); conditions: for % Inhibition (peroral) of paw edema: 1 hour before carrageenan, 3 hours
Procedure: The compounds of the invention are further tested in the rat carrageenan paw edema assay to determine their ability to inhibit the acute inflammatory response. This assay is carried out as follows: 140-180 gm mal Sprague-Dawley rats, in groups of 6 animals are injected subcutaneously in the right paw with 0.1 ml of 1% carrageenan at zero time. Mercury plethysmographic readings (ml) of the paw are made at zero time and 3 hours later. Test compounds are suspended or dissolved in 0.5% methycellulose and given perorally 1 hour prior to carrageenan administration. The increase in paw volume (edema in ml.) produced by the carrageenan is measured. […] Unpaired Student's t-test is used to determine statistical significance.

[2] = system: adjuvant-induced polyarthritis in Sprague-Dawley rats; test: adjuvant arthritis assay; format: in vivo, rat (Sprague-Dawley); conditions: oral dose 30 mg/kg
[3] = system: LTB4 synthesis by rat polymorphonuclear leukocytes (lipoxygenase); test: inhibition of LTB4 synthesis by rat glycogen-elicited polymorphonuclear leukocytes (PMN); format: cell-based, rat (female Wistar)
Procedure: This is especially true with respect to 5,12-diHETE, which is also denoted as LTB4 [See Ford-Hitchinson, J. Roy. Soc. Med., 74, 831 (1981)]. The assay of this Example measures the ability of the compounds of the invention to inhibit the synthesis of LTB4 by rat glycogenelicited polymorphonuclear leukocytes (PMN).
The assay is carried out as follows:
Rat polymorphonuclear leukocytes (PMNs) are obtained from female Wistar rats (150-200 g) which receive an injection of 6% glycogen (10 ml i.p.). Rats are sacrificed 18-24 hours post injection by CO2 asphyxiation and the elicited cells are harvested by peritoneal lavage using physiological saline (0.9% NaCl). The exudate is centrifuged at 400 x g for 10 minutes. The supernatant fluid is discarded and the cell pellet is resuspended to a concentration of 2.0×10^7 cells/ml in HBSS containing Ca^++ and Mg^++ and 10 μM L-cysteine.
To 1 ml aliquots of cell suspension, test drugs or vehicle are added, then preincubated at 37° C. for 10 minutes. […] Supernatants are then analyzed by HPLC analysis on a 15 cm×4.6 mm ID Supelcosil LC-18 (Supelco)(3M) column, using a two solvent system at a flow rate of 1.4 ml total flow as follows: […]
Injections: 150 μl of each supernatant is injected directly onto column and ^3 H arachidonic acid metabolites are monitored using an on-line radioactivity detector (Ramona, IN/US, Fairfield, NJ). […]

## CC(=NNC(=N)N)c1cccc(OCc2ccc3ccccc3c2)c1 [Example 1, 2-[1-[3-(2-Naphthalenylmethoxy)phenyl]ethylidene]-hydrazinecarboximidamide,0.1 hydrate]
[1]; at 50 mg/kg peroral
  % Inhibition (peroral) of paw edema: 42%
[2]; day 4
  % Change of Right Paw Edema at Day 4: 50%
[2]; day 16
  % Change of Left Paw Edema at Day 16: 31%

## CC(=NNC(=N)N)c1cccc(OCc2ccc3ccccc3n2)c1 [Example 2, 2-[1-[3-(2-Quinolinylmethoxy)phenyl]ethylidene]hydrazinecarboximidamide]
[3]
  >50% Inhibitory at 50 μm (LTB4 synthesis): + (those compounds having an inhibition of >50%)
[1]; at 100 mg/kg peroral
  % Inhibition (peroral) of paw edema: 43%

## COc1ccc2c(c1)c(CC(=O)O)c(C)n2C(=O)c1ccc(Cl)cc1 [Indomethacin, reference compound]
[1]; Rattus norvegicus, po, 3 h, read-out: Oral ED50 (95% C.L.) mg/kg
  ED50: 3.7 mg/kg
